Our source for the IC50 values is patent publication US10273224B2, “Substituted pyrimidine compounds, compositions and medicinal applications thereof” (JUBILANT BIOSYS LIMITED, priority 2013, dated 2019).

Structures can show the parent of a compound that is named as a salt. Bounds are passed on as bounds.

The term IC50 denotes the concentration that gives 50% inhibition.

This test deals with T1, EGFR (L858R & T790M) (Homo sapiens, UniProt P00533, L858R/T790M).
T1 construct: GST; purchased Proqinase
T1 sequence (P00533 25-1210 T790M/L858R): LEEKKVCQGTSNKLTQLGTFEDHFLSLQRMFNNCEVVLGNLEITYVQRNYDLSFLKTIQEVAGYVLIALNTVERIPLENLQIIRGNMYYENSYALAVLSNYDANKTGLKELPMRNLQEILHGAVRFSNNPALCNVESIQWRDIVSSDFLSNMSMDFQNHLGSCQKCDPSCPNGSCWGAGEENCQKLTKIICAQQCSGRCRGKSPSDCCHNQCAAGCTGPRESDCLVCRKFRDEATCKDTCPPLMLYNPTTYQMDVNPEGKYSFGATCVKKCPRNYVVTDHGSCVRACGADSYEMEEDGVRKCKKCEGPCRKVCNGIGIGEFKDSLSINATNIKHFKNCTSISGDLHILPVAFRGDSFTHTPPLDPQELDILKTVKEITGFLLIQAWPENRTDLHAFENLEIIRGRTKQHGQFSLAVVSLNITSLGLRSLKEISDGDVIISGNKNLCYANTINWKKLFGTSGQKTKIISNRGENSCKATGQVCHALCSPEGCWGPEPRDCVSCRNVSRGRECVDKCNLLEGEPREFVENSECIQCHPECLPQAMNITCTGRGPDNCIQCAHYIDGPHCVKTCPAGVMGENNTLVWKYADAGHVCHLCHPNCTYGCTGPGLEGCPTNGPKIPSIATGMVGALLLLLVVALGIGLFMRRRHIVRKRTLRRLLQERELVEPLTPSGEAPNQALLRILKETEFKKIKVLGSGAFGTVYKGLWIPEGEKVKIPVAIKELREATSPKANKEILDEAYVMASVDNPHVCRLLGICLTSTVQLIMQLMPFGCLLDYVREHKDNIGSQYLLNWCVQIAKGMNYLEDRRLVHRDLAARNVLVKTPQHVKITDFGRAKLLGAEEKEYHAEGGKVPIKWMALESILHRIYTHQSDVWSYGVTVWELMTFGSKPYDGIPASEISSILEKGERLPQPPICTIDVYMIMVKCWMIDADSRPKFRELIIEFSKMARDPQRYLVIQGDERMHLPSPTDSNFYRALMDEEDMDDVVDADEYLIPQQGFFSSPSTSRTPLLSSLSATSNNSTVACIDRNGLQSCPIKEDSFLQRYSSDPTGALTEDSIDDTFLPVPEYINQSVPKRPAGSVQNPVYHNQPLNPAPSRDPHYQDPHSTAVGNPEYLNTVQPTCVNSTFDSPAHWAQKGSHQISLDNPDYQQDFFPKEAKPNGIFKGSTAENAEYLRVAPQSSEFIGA
Description: EGFR (L858R & T790M) inhibition assay, HTRF method. The note with it: biochemical HTRF; EGFR (T790M/L858R) 2.5 nM, ATP 5 μM, 60 min room temperature. The method in brief:
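GST-EGFR T790M/L858R (2.5 nM) phosphorylating biotinylated gastrin precursor peptide (0.5 μM) with 5 μM ATP in HEPES pH 7.4/Mg/Mn buffer, 60 min room temperature; compounds from 10 μM top. HTRF read-out (Eu anti-pTyr, SA-APC), 665/620 nm; IC50 from % inhibition.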
In general terms: Time-resolved FRET reads energy transfer from a long-lived donor to a nearby acceptor.
With `C=CC(=O)Nc1cccc(Nc2nc(Nc3cnn(Cc4cccc(C)n4)c3)ncc2Cl)c1` [Compound I-52, N-(3-((5-chloro-2-((1-((6-methylpyridin-2-yl)methyl)-1H-pyrazol-4-yl)amino)pyrimidin-4-yl)amino)phenyl)acrylamide], the IC50 was above 100 nM.
Regarding `CN(C)C/C=C/C(=O)Nc1cccc(Nc2nc(Nc3cnn(C4CCN(C)CC4)c3)ncc2Cl)c1` [Compound I-53, (E)-N-(3-((5-chloro-2-((1-(1-methylpiperidin-4-yl)-1H-pyrazol-4-yl)amino)pyrimidin-4-yl)amino)phenyl)-4-(dimethylamino)but-2-enamide], the IC50 is above 100 nM.
Take `C=CC(=O)Nc1ccc(OC2CCOC2)c(Nc2nc(Nc3cnn(C)c3)ncc2Cl)c1` (stereo not drawn) [Compound I-54, N-(3-((5-chloro-2-((1-methyl-1H-pyrazol-4-yl)amino)pyrimidin-4-yl)amino)-4-((tetrahydrofuran-3-yl)oxy)phenyl)acrylamide]: the IC50 is above 100 nM.
In the case of `C=CC(=O)Nc1cc(Nc2nc(Nc3cnn(C)c3)ncc2Cl)ccc1OC1CCOC1` (stereo not drawn) [Compound I-55, N-(5-((5-chloro-2-((1-methyl-1H-pyrazol-4-yl)amino)pyrimidin-4-yl)amino)-2-((tetrahydrofuran-3-yl)oxy)phenyl)acrylamide], the IC50 is above 100 nM.
As for `C=CC(=O)Nc1cccc(C(C)Nc2nc(Nc3cnn(C)c3)ncc2Cl)c1` (stereo not drawn) [Compound I-56, N-(3-(1-((5-chloro-2-((1-methyl-1H-pyrazol-4-yl)amino)pyrimidin-4-yl)amino)ethyl)phenyl)acrylamide], the figure is above 100 nM; as for `CC(Nc1nc(Nc2cnn(C)c2)ncc1Cl)c1cccc(NC(=O)/C=C/CN(C)C)c1` (stereo not drawn) [Compound I-57, (E)-N-(3-(1-((5-chloro-2-((1-methyl-1H-pyrazol-4-yl)amino)pyrimidin-4-yl)amino)ethyl)phenyl)-4-(dimethylamino)but-2-enamide], above 100 nM.
Consider `C=CC(=O)Nc1ccc(F)c(Nc2nc(Nc3cn(C)nc3Cl)ncc2Cl)c1` [Compound I-58, N-(3-((5-chloro-2-((3-chloro-1-methyl-1H-pyrazol-4-yl)amino)pyrimidin-4-yl)amino)-4-fluorophenyl)acrylamide], for which the IC50 is below 10 nM.
As for `C=CC(=O)Nc1cccc(Nc2nc(Nc3cnn(C)c3)nc(C)c2Cl)c1` [Compound I-59, N-(3-((5-chloro-6-methyl-2-((1-methyl-1H-pyrazol-4-yl)amino)pyrimidin-4-yl)amino)phenyl)acrylamide], the figure is above 100 nM; as for `C=CC(=O)Nc1cccc(Nc2nc(Nc3cn(C)cn3)ncc2Cl)c1` [Compound I-60, N-(3-((5-chloro-2-((1-methyl-1H-imidazol-4-yl)amino)pyrimidin-4-yl)amino)phenyl)acrylamide], 10 to 100 nM.
As for `C=CC(=O)Nc1cccc(Nc2nc(Nc3cnn(C4CCNCC4)c3)ncc2Cl)c1` [Compound I-62, N-(3-((5-chloro-2-((1-(piperidin-4-yl)-1H-pyrazol-4-yl)amino)pyrimidin-4-yl)amino)phenyl)acrylamide trifluoroacetate], the figure is below 10 nM.
Turning to `Cn1cc(Nc2ncc(Cl)c(Nc3cccc(N4C(=O)C=CC4=O)c3)n2)cn1` [Compound I-63, 1-(3-((5-chloro-2-((1-methyl-1H-pyrazol-4-yl)amino)pyrimidin-4-yl)amino)phenyl)-1H-pyrrole-2,5-dione], the IC50 is above 100 nM.
To `C=CS(=O)(=O)Nc1cc(Nc2nc(Nc3cnn(C4CCN(C)CC4)c3)ncc2Cl)ccc1F` [Compound I-64, N-(5-((5-chloro-2-((1-(1-methylpiperidin-4-yl)-1H-pyrazol-4-yl)amino)pyrimidin-4-yl)amino)-2-fluorophenyl)ethenesulfonamide] belongs 10 to 100 nM; to `C=CS(=O)(=O)Nc1cccc(Nc2nc(Nc3cnn(C)c3)ncc2Cl)c1` [Compound I-65, N-(3-((5-chloro-2-((1-methyl-1H-pyrazol-4-yl)amino)pyrimidin-4-yl)amino)phenyl)ethenesulfonamide], 10 to 100 nM.
To `C=CC(=O)Nc1cc(Nc2nc(Nc3cnn(C)c3)ncc2Cl)ccc1F` [Compound I-66, N-(5-((5-chloro-2-((1-methyl-1H-pyrazol-4-yl)amino)pyrimidin-4-yl)amino)-2-fluorophenyl)acrylamide] belongs 10 to 100 nM.
To `C=CC(=O)Nc1cc(Nc2nc(Nc3cnn(C4CCN(C)CC4)c3)ncc2Cl)ccc1F` [Compound I-67, N-(5-((5-chloro-2-((1-(1-methylpiperidin-4-yl)-1H-pyrazol-4-yl)amino)pyrimidin-4-yl)amino)-2-fluorophenyl)acrylamide] belongs 10 to 100 nM; to `C=CC(=O)Nc1cc(Nc2nc(Nc3cnn(C)c3)ncc2Cl)c(F)cc1F` [Compound I-68, N-(5-((5-chloro-2-((1-methyl-1H-pyrazol-4-yl)amino)pyrimidin-4-yl)amino)-2,4-difluorophenyl)acrylamide], 10 to 100 nM.
`C=CC(=O)Nc1cc(Nc2nc(Nc3cnn(C4CCN(C)CC4)c3)ncc2Cl)c(F)cc1F` [Compound I-69, N-(5-((5-chloro-2-((1-(1-methylpiperidin-4-yl)-1H-pyrazol-4-yl)amino)pyrimidin-4-yl)amino)-2,4-difluorophenyl)acrylamide]: the IC50 was below 10 nM.
To `C=CC(=O)Nc1ccc(F)c(Nc2nc(Nc3cnn(C)c3C)ncc2Cl)c1` [Compound I-71, N-(3-((5-chloro-2-((1,5-dimethyl-1H-pyrazol-4-yl)amino)pyrimidin-4-yl)amino)-4-fluorophenyl)acrylamide] belongs 10 to 100 nM; to `C=CC(=O)Nc1cccc(N(C)c2nc(Nc3cnn(C4CCN(C)CC4)c3)ncc2Cl)c1` [Compound I-72, N-(3-((5-chloro-2-((1-(1-methylpiperidin-4-yl)-1H-pyrazol-4-yl)amino)pyrimidin-4-yl)(methyl)amino)phenyl)acrylamide], 10 to 100 nM.
As for `C=CC(=O)Nc1cccc(Nc2nc(Nc3cnn(C)c3)ncc2Cl)n1` [Compound I-75, N-(6-((5-chloro-2-((1-methyl-1H-pyrazol-4-yl)amino)pyrimidin-4-yl)amino)pyridin-2-yl)acrylamide], the IC50 was 10 to 100 nM.
To `C=CC(=O)Nc1cccc(Nc2nc(Nc3cnn(C)c3)ncc2C2CC2)c1` [Compound I-76, N-(3-((5-cyclopropyl-2-((1-methyl-1H-pyrazol-4-yl)amino)pyrimidin-4-yl)amino)phenyl)acrylamide] belongs 10 to 100 nM; to `C=CC(=O)Nc1cccc(Oc2nc(Nc3cnn(C4CCN(C)CC4)c3)ncc2Cl)c1` [Compound I-77, N-(3-((5-chloro-2-((1-(1-methylpiperidin-4-yl)-1H-pyrazol-4-yl)amino)pyrimidin-4-yl)oxy)phenyl)acrylamide], 10 to 100 nM.
As to `C=CC(=O)Nc1cccc(Oc2nc(Nc3cc4n(n3)CCN(C)C4)ncc2Cl)c1` [Compound I-78, N-(3-((5-chloro-2-((5-methyl-4,5,6,7-tetrahydropyrazolo[1,5-a]pyrazin-2-yl)amino)pyrimidin-4-yl)oxy)phenyl)acrylamide], the IC50 was in the range of 10 to 100 nM.
As to `C=CC(=O)Nc1cccc(Oc2nc(Nc3cnn(C(C)C)c3)ncc2Cl)c1` [Compound I-79, N-(3-((5-chloro-2-((1-isopropyl-1H-pyrazol-4-yl)amino)pyrimidin-4-yl)oxy)phenyl)acrylamide], the IC50 lay within 10 to 100 nM.
As for `C=CC(=O)Nc1cccc(Oc2nc(Nc3cnn(CCN(C)C)c3)ncc2Cl)c1` [Compound I-80, N-(3-((5-chloro-2-((1-(2-(dimethylamino)ethyl)-1H-pyrazol-4-yl)amino)pyrimidin-4-yl)oxy)phenyl)acrylamide], the figure is 10 to 100 nM.
As for `C=CC(=O)Nc1cccc(Oc2nc(Nc3cnn(CC(C)(C)O)c3)ncc2Cl)c1` [Compound I-81, N-(3-((5-chloro-2-((1-(2-hydroxy-2-methylpropyl)-1H-pyrazol-4-yl)amino)pyrimidin-4-yl)oxy)phenyl)acrylamide], the figure is above 100 nM.
To `C=CC(=O)Nc1cccc(Oc2nc(Nc3cnn(CC4CC4)c3)ncc2Cl)c1` [Compound I-82, N-(3-((5-chloro-2-((1-(cyclopropylmethyl)-1H-pyrazol-4-yl)amino)pyrimidin-4-yl)oxy)phenyl)acrylamide] belongs 10 to 100 nM; to `C=CC(=O)Nc1cccc(Oc2nc(Nc3c(C)nn(C4CCN(C)CC4)c3C)ncc2Cl)c1` [Compound I-83, N-(3-((5-chloro-2-((3,5-dimethyl-1-(1-methylpiperidin-4-yl)-1H-pyrazol-4-yl)amino)pyrimidin-4-yl)oxy)phenyl)acrylamide], above 100 nM.
As for `C=CC(=O)Nc1cccc(Oc2nc(Nc3c(C)nn(C)c3C)ncc2Cl)c1` [Compound I-84, N-(3-((5-chloro-2-((1,3,5-trimethyl-1H-pyrazol-4-yl)amino)pyrimidin-4-yl)oxy)phenyl)acrylamide], the half-maximal inhibitory concentration (IC50) is above 100 nM.
Consider `C=CC(=O)Nc1cccc(Oc2nc(Nc3cnn(C)c3)ncc2Cl)c1` [Compound I-85, N-(3-((5-chloro-2-((1-methyl-1H-pyrazol-4-yl)amino)pyrimidin-4-yl)oxy)phenyl)acrylamide], for which the IC50 is below 10 nM.
As for `C=CC(=O)Nc1cccc(Oc2nc(Nc3cnn(CCOC)c3)ncc2Cl)c1` [Compound I-87, N-(3-((5-chloro-2-((1-(2-methoxyethyl)-1H-pyrazol-4-yl)amino)pyrimidin-4-yl)oxy)phenyl)acrylamide], the IC50 was 10 to 100 nM.
For the compound `C=CC(=O)NC1CCCC(Nc2nc(Nc3cnn(C)c3)ncc2Cl)C1` (stereo not drawn) [Compound I-92, N-(3-((5-chloro-2-((1-methyl-1H-pyrazol-4-yl)amino)pyrimidin-4-yl)amino)cyclohexyl)acrylamide], the IC50 was 10 to 100 nM.
As for `C=CC(=O)NC1CCC(Nc2nc(Nc3cnn(C)c3)ncc2Cl)C1` (stereo not drawn) [Compound I-93, N-(3-((5-chloro-2-((1-methyl-1H-pyrazol-4-yl)amino)pyrimidin-4-yl)amino)cyclopentyl)acrylamide], the figure is above 100 nM.
